The structures appear in SMILES notation.

Consider two compounds from US12439914B2, “Bactrocera oleae attractant composition and uses thereof” (CEARITIS, priority 2020, dated 2025).

The subject of the assay is Bactrocera oleae. The assay can be described thus: Attractiveness in glass Y-tube olfactometer (behavioural response of the olive fruit fly). It is filed as in vivo. The settings on record: 10 ng on filter paper vs dichloromethane control; individual female flies 8 to 30 days old; Y-tube choice. On the procedure:
The attractiveness of the active substances of the attractant composition according to the invention was evaluated using a glass Y-tube olfactometer (internal diameter 4.5 cm; length of the arm 22 cm; length of the main stem 24.5 cm). The assembly was placed in a lit room at 22° C. Screws held the Y-tube in an inclined position (angle of […] between the Y-tube and the horizontal plane). The Y-tube was placed in the centre of an artificially lit box (60×60×60 cm), covered with sheets on the outside in order to avoid external stimuli. The tubes at the end of the Y were connected to two glass adaptors, to which 30 ml glass flasks were attached, each containing a 1 cm^2 piece of filter paper. […]
Individual female flies—from 8 to 30 days old—were released one by one into the first cm of the base tube of the olfactometer using a manual aspirator. […] The air suction tube was connected to the glass Y-tube and the time until the flies reached the end of one of the arms of the Y was recorded. […]
In order to evaluate the attractiveness of one molecule vis-à-vis Bactrocera oleae, the data collected were analyzed with a khi2 statistical test on Excel and R. The p value, obtained in this test, indicates the probability of obtaining the same value if the null hypothesis was true. […]

On to `C=C1CC/C=C(\C)CC[C@@H]2[C@@H]1CC2(C)C` [Beta-caryophyllene, beta-caryophyllene], for which the “Behavioural response obtained using the substance tested (expressed in %)” value was 70.00%. For the compound `CCCCCCCCCC=O` [Decanal, decanal], the “Behavioural response obtained using the substance tested (expressed in %)” value is reported as 68.00%.
